We go through 16 compounds from patent US20240327412A1, “FACTOR XIIA INHIBITORS” (KALVISTA PHARMACEUTICALS LIMITED, priority 2021, published 2024).

Common to all, as to assay type: biochemical
One experiment has as its target T1, Human Factor XIIa (Homo sapiens, UniProt P00748).
T1 construct: Proteolytic cleavage of FXII to heavy and light chains of FXIIa dramatically increases catalytic activity; purchased Enzyme Research Laboratories
T1 sequence (P00748 373-615 limits assumed): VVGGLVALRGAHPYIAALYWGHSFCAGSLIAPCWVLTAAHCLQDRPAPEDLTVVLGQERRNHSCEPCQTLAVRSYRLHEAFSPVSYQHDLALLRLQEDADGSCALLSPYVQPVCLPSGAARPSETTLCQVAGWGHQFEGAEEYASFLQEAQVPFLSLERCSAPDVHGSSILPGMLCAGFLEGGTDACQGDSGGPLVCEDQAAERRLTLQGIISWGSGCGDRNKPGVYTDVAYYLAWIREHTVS
T1 sequence (P00748 20-372 partner limits assumed): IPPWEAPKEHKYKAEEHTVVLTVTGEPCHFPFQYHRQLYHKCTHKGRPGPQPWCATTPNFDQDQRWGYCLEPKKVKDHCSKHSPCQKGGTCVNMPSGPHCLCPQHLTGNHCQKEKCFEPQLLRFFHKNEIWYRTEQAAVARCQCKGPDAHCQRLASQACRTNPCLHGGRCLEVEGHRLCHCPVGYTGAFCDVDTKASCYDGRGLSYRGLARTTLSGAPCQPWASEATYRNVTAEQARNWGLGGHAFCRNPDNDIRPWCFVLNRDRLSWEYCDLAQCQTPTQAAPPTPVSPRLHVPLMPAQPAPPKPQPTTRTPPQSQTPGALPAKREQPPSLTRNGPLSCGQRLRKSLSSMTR
The experiment in a line: Determination of FXIIa inhibition (fluorogenic substrate H-DPro-Phe-Arg-AFC, IC50 assay). Particulars: substrate at Km concentration, 25° C.; category scale; read-out: Human FXII IC50 (nm). A digest of the protocol:
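At substrate Km and 25° C., the rate of AFC release from H-DPro-Phe-Arg-AFC by human Factor XIIa was followed for 5 min across compound concentrations. Inhibition was derived as percent of uninhibited rate, giving IC50.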

For a further experiment, the target named is T2, Plasma Kallikrein (Homo sapiens, UniProt P03952).
T2 construct: FXIIa converts plasma prekallikrein (PK) to plasma kallikrein (PKa)
T2 sequence (P03952 391-638 limits assumed): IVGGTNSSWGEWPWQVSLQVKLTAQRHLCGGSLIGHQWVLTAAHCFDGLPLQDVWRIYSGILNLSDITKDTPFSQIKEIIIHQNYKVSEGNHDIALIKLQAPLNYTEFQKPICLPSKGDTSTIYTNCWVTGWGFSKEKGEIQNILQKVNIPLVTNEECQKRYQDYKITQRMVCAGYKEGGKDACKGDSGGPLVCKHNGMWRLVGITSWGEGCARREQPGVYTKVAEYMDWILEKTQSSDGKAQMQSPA
T2 sequence (P03952 20-390 partner limits assumed): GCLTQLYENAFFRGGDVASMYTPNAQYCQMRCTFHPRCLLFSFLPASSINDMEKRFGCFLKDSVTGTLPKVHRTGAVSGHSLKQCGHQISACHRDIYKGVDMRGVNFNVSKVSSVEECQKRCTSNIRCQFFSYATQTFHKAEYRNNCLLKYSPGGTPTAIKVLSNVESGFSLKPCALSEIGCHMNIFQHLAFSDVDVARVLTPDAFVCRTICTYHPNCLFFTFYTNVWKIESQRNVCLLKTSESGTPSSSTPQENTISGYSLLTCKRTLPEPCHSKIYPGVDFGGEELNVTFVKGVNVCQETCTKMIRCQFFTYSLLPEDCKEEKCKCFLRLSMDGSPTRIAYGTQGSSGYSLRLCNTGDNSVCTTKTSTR
The experiment can be described thus: Related protease inhibition: Plasma Kallikrein (fluorogenic substrate at Km). Particulars: class symbols per Table 18, read-out: IC50 (human PKal). A digest of the protocol:
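Each human protease was incubated with substrate and test compound over a concentration range; fluorescence release was then recorded for 5 min at 25° C. Rates were normalized to uninhibited enzyme (100%) to derive IC50.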

Another experiment deals with KLK1 (Homo sapiens, UniProt P06870). The experiment in a line: Related protease inhibition: KLK1 (fluorogenic substrate at Km). The note with it: class symbols per Table 18. The protocol: (§1) In vitro inhibition of related proteases was determined using an IC50 assay based on standard literature methods (see e.g. Shori et al., Biochem. Pharmacol., 1992, 43, 1209; Bouckaert et al., European Journal of Medicinal Chemistry 110 (2016) 181). Human serine protease enzyme Plasma Kallikrein, KLK1, FXa, Plasmin, Thrombin and Trypsin were assayed for enzymatic activity using an appropriate fluorogenic substrate at Km concentration, FXIa at fixed substrate concentration of 100 μM and various concentrations of the test compound. Protease activity was measured by monitoring the accumulation of liberated fluorescence from the substrate over 5 min at 25° C. The linear rate of fluorescence increase per minute was expressed as percentage (%) activity. IC50 values were calculated as the concentration of inhibitor giving 50% inhibition of the uninhibited enzyme activity (100%).
Chain of KLK1 (P06870 25-262): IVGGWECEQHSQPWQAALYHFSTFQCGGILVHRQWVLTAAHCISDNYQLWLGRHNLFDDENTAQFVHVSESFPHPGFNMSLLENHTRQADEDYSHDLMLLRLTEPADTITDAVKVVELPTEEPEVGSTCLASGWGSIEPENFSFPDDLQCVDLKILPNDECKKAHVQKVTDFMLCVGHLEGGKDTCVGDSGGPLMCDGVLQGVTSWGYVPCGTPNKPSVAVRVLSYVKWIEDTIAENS

In the next experiment the target is FXa (Homo sapiens, UniProt P00742). The experiment in a line: Related protease inhibition: FXa (fluorogenic substrate at Km). Particulars: class symbols per Table 18. On the procedure: as §1
Chain of FXa (P00742 235-488 limits assumed): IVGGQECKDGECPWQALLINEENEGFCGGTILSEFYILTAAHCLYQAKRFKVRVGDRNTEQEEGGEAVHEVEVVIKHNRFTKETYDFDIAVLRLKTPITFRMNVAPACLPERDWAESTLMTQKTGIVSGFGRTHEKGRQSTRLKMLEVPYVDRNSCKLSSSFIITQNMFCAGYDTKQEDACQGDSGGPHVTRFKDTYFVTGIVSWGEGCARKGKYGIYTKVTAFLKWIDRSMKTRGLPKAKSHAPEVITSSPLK
Chain of FXa (P00742 41-179 partner limits assumed): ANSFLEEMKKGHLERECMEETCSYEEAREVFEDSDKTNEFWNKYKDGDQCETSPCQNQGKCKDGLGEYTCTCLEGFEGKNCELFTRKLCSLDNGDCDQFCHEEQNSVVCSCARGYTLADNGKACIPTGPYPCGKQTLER
The target in another experiment is Thrombin (Homo sapiens, UniProt P00734). The experiment can be described thus: Related protease inhibition: Thrombin (fluorogenic substrate at Km). The note with it: class symbols per Table 18. The protocol: as §1

The term IC50 denotes the midpoint of a concentration-inhibition curve. As for `Nc1nccc2c(NCC34CC(COC5Cc6nccn6C5)(C3)C4)cccc12` (centres unmarked) [Example 1118, N5-((3-(((6,7-dihydro-5H-pyrrolo[1,2-a]imidazol-6-yl)oxy)methyl)bicyclo[1.1.1]pentan-1-yl)methyl)isoquinoline-1,5-diamine], the IC50 was 1 to 3 µM at Human Factor XIIa; > 40 µM on Plasma Kallikrein; 3 to 10 µM against KLK1; > 40 µM on FXa; 10 to 40 µM at Thrombin.
As for `Nc1nccc2c(NCC34CC(COc5ccn6ccnc6c5)(CO3)C4)cccc12` [Example 6601, 5-N-[[4-(Imidazo[1,2-a]pyridin-7-yloxymethyl)-2-oxabicyclo[2.1.1]hexan-1-yl]methyl]isoquinoline-1,5-diamine], the IC50 at Human Factor XIIa was 0.01 to 0.1 µM; on Plasma Kallikrein it was > 40 µM; against KLK1, 3 to 10 µM; at FXa, 10 to 40 µM; at Thrombin, 10 to 40 µM.
Turning to `Nc1nccc2c(NCC34COC(COc5ccc6nnc(C(F)F)n6n5)(C3)C4)cccc12` [Example 2204, N5-((1-(((3-(difluoromethyl)-[1,2,4]triazolo[4,3-b]pyridazin-6-yl)oxy)methyl)-2-oxabicyclo[2.1.1]hexan-4-yl)methyl)isoquinoline-1,5-diamine], the IC50 was 0.3 to 1 µM at Human Factor XIIa; > 40 µM on Plasma Kallikrein; 3 to 10 µM against KLK1; > 40 µM against FXa; > 40 µM at Thrombin.
For the compound `Nc1nccc2c(NC[C@H]3C[C@@H](COc4ccn5ccnc5c4)C3)cccc12` [Example 5003, N5-((cis-3-((imidazo[1,2-a]pyridin-7-yloxy)methyl)cyclobutyl)methyl)isoquinoline-1,5-diamine], the IC50 is 0.1 to 0.3 µM on Human Factor XIIa; > 40 µM on Plasma Kallikrein; 3 to 10 µM against KLK1; > 40 µM on FXa; > 40 µM against Thrombin.
With `Nc1nccc2c(NCC34CC(COc5cnc6cc[nH]c6c5)(C3)C4)cccc12` [Example 1101, 5-N-[[3-(1H-pyrrolo[3,2-b]pyridin-6-yloxymethyl)-1-bicyclo[1.1.1]pentanyl]methyl]isoquinoline-1,5-diamine], the IC50 was 3 to 10 µM at Human Factor XIIa; > 40 µM on Plasma Kallikrein; 3 to 10 µM at KLK1; 1 to 3 µM at FXa; 10 to 40 µM against Thrombin.
Turning to `Nc1nccc2c(NCC34CC(COc5ccc6nccn6c5)(CCO3)C4)cccc12` [Example 10904, N5-((5-((imidazo[1,2-a]pyridin-6-yloxy)methyl)-2-oxabicyclo[3.1.1]heptan-1-yl)methyl)isoquinoline-1,5-diamine], the IC50 was 0.01 to 0.1 µM at Human Factor XIIa; > 40 µM at Plasma Kallikrein; 3 to 10 µM at KLK1; > 40 µM against FXa; 10 to 40 µM at Thrombin.
Turning to `Nc1nccc2c(NCC34CC(COc5ccc6c(c5)C(=O)NC6)(C3)C4)cccc12` [Example 1109, 6-((3-(((1-aminoisoquinolin-5-yl)amino)methyl)bicyclo[1.1.1]pentan-1-yl)methoxy)isoindolin-1-one], the IC50 at Human Factor XIIa was 0.3 to 1 µM; on Plasma Kallikrein, > 40 µM; against KLK1 it was 1 to 3 µM; against FXa it was 10 to 40 µM; on Thrombin, 10 to 40 µM.
Regarding `Cc1cc2c(NCC34CC(COc5ccn6ccnc6c5)(C3)C4)ccnc2[nH]1` [Example 1012, N-((3-((Imidazo[1,2-a]pyridin-7-yloxy)methyl)bicyclo[1.1.1]pentan-1-yl)methyl)-2-methyl-1H-pyrrolo[2,3-b]pyridin-4-amine], the IC50 was 1 to 3 µM at Human Factor XIIa; > 100 µM at Plasma Kallikrein; > 40 µM against KLK1; 1 to 3 µM at FXa; 1 to 3 µM against Thrombin.
For `Nc1nccc2c(NCC34CC(C(=O)N5CCn6ccnc6C5)(C3)C4)cccc12` [Example 1016, [3-[[(1-Aminoisoquinolin-5-yl)amino]methyl]-1-bicyclo[1.1.1]pentanyl]-(6,8-dihydro-5H-imidazo[1,2-a]pyrazin-7-yl)methanone], the IC50 is 3 to 10 µM at Human Factor XIIa; > 40 µM on Plasma Kallikrein; 3 to 10 µM at KLK1; > 40 µM against FXa; > 40 µM at Thrombin.
As for `Cn1ccc(OCC23COC(CNc4cccc5c(N)nccc45)(C2)C3)cc1=O` [Example 6609, 4-((1-(((1-aminoisoquinolin-5-yl)amino)methyl)-2-oxabicyclo[2.1.1]hexan-4-yl)methoxy)-1-methylpyridin-2(1H)-one], the IC50 is 0.1 to 0.3 µM at Human Factor XIIa; > 40 µM on Plasma Kallikrein; 3 to 10 µM at KLK1; > 40 µM against FXa; > 40 µM on Thrombin.
Consider `Nc1nccc2c(NCC34CC(CN5CCn6ccnc6C5)(C3)C4)cccc12` [Example 1004, 5-N-[[3-(6,8-Dihydro-5H-imidazo[1,2-a]pyrazin-7-ylmethyl)-1-bicyclo[1.1.1]pentanyl]methyl]isoquinoline-1,5-diamine], for which the 50% inhibitory concentration (IC50) was 3 to 10 µM on Human Factor XIIa; > 40 µM on Plasma Kallikrein; 3 to 10 µM at KLK1; 1 to 3 µM on FXa; 10 to 40 µM on Thrombin.
Turning to `Nc1nccc2c(NC[C@H]3C[C@H](COc4ccn5ccnc5c4)C3)cccc12` [Example 4401, N5-((trans-3-((imidazo[1,2-a]pyridin-7-yloxy)methyl)cyclobutyl)methyl)isoquinoline-1,5-diamine], the IC50 at Human Factor XIIa is 0.3 to 1 µM; on Plasma Kallikrein, > 40 µM; against KLK1, 1 to 3 µM; against FXa, > 40 µM; against Thrombin, > 40 µM.
As for `Cc1cc2c(NCC34CC(COc5ccn6ccnc6c5)(CO3)C4)ccnc2[nH]1` [Example 6605, N-((4-((imidazo[1,2-a]pyridin-7-yloxy)methyl)-2-oxabicyclo[2.1.1]hexan-1-yl)methyl)-2-methyl-1H-pyrrolo[2,3-b]pyridin-4-amine], the IC50 at Human Factor XIIa was 3 to 10 µM; on Plasma Kallikrein it was > 40 µM; at KLK1 it was 10 to 40 µM; at FXa, 10 to 40 µM; against Thrombin, 10 to 40 µM.
As to `Nc1nccc2c(NCC34CC(COc5ccc6nccn6c5)(C3)C4)cccc12` [Example 1017, 5-N-[[3-(Imidazo[1,2-a]pyridin-6-yloxymethyl)-1-bicyclo[1.1.1]pentanyl]methyl]isoquinoline-1,5-diamine], the IC50 at Human Factor XIIa is 0.1 to 0.3 µM; at Plasma Kallikrein, > 40 µM; at KLK1 it was 3 to 10 µM; at FXa, 10 to 40 µM; on Thrombin, 10 to 40 µM.
For `Nc1nccc2c(NCC34CC(COc5ccc6nc[nH]c6c5)(C3)C4)cccc12` [Example 1105, N5-((3-(((1H-benzo[d]imidazol-6-yl)oxy)methyl)bicyclo[1.1.1]pentan-1-yl)methyl)isoquinoline-1,5-diamine], the IC50 on Human Factor XIIa is 3 to 10 µM; at Plasma Kallikrein it was > 40 µM; at KLK1, 3 to 10 µM; on FXa it was 1 to 3 µM; at Thrombin it was 10 to 40 µM.
`Cn1ccc(OCC23CC(CNc4cccc5c(N)nccc45)(C2)C3)cc1=O` [Example 1019, 4-[[3-[[(1-aminoisoquinolin-5-yl)amino]methyl]-1-bicyclo[1.1.1]pentanyl]methoxy]-1-methylpyridin-2-one]: the IC50 on Human Factor XIIa is 0.3 to 1 µM; on Plasma Kallikrein, > 40 µM; against KLK1, 3 to 10 µM; against FXa, 10 to 40 µM; against Thrombin, 10 to 40 µM.
